From patent publication US20080139520A1, “Altering cholesterol and fat uptake by novel allosteric inhibitors of pancreatic phospholipase A2” (priority 2006, published 2008)

How the values were obtained:
[1] = target: T1, human pancreatic IB PLA2 (Homo sapiens, UniProt P04054); test: Rate-lowering of hydrolysis of DMPC + 0.05 mole fraction cholate vesicles by human pancreatic PLA2; assay type: biochemical
T1 construct: gift of Dr. Suren Tatulian (Orlando, Fla.)
Source text: (§1) Independent support for selective binding of the rate lowering compounds to a regulatory site on PLA2 comes from the rate-lowering effect of such compounds on the hydrolysis of DMPC vesicles containing 0.05 mole fraction cholate.
(§2) Scores of other compounds in guggul were not active.

[2] = target: T2, pig pancreatic IB PLA2 (Sus scrofa, UniProt P00592); test: Rate-lowering of hydrolysis of DMPC + 0.05 mole fraction cholate vesicles by pig pancreatic PLA2; assay type: biochemical; settings: 0.03 mole fraction; DMPC + 0.05 mole fraction cholate
T2 construct: made in house
T2 sequence (P00592 23-146): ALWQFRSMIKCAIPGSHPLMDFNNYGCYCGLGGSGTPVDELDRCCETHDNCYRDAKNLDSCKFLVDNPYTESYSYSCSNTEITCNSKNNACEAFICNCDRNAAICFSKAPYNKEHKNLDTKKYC
Source text: as §1, §2

[3] = target: T3, (62-66)-loop deleted pig pancreatic IB ΔPLA2 (Sus scrofa, UniProt P00592, DEL84-88); test: Hydrolysis of DMPC vesicles by (62-66)-loop deleted ΔPLA2 with added bile salt; assay type: biochemical
T3 construct: made in house
T3 sequence (P00592 with tags, fused parts or gaps DEL84-88): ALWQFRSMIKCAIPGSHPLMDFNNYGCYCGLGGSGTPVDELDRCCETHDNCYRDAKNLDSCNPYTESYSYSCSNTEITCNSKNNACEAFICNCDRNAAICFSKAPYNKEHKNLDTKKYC
Method: Aqueous dispersion of phospholipid was sonicated in a bath type sonicator. Virtually transparent suspension was annealed for at least 4 hours at room temperature before use. Reaction progress for the PLA2 catalyzed hydrolysis of sonicated DMPC (1 mM) vesicles was measured by pH-stat titration (Radiometer) with 1 mM 2-aminopropanediol in 4 ml reaction buffer containing 5 mM CaCl2 for DMPC (or 0.5 mM for DMPM), 1 mM NaCl, and 0.1 mM EDTA at pH 8.0 and 24° C. in the nitrogen purged closed atmosphere. Reaction was initiated by adding 0.1 μg enzyme in 1-10 μl solution. The pH stat method was also used for monitoring the rate of hydrolysis of DMPM (0.4 mM) vesicles in the presence of polymyxin [27-29], or of the mixed-micelles of POPC with bile salts in 1:2 ratio [13, 30].

[4] = target: T4, PLA2 Δ62-66 (Sus scrofa, UniProt P00592, DEL84-88); test: Bile salt binding by Trp emission, Δ62-66 PLA2; set-up: species or system pig
T4 construct: made in house
T4 sequence (P00592 with tags, fused parts or gaps DEL84-88): as above
Method: (§3) Fluorescence emission spectrum or time course of the intensity change from tryptophan or the resonance energy transfer probe TMA-DPH were measured in the ratio mode on SLM-Aminco AB2 in a 1 cm cuvette [31, 32] in 1.6 ml stirred buffer containing 1 or 2 μM PLA2 in 10 mM Tris, 5 mM CaCl2 and 20 mM NaCl at pH 8.0 and 24° C. The slit-widths were 4 nm with excitation at 280.
(§4) As shown in [45], the binding of decylsulfate to the R site is accompanied by a modest increase in the emission intensity from Trp-3. […] As summarized in Table 2, the value of KEB depends on the position of Trp, although Hill coefficient remains 1. […] Note that KEB for the EB complex of ΔPLA2 is about 7-fold larger than that for PLA2.

[5] = target: PLA2 K10M (Sus scrofa, UniProt P00592, K32M); test: Bile salt binding by Trp emission, K10M PLA2; set-up: species or system pig; settings: read-out: KEB
PLA2 K10M, sequence (P00592 whole entry K32M): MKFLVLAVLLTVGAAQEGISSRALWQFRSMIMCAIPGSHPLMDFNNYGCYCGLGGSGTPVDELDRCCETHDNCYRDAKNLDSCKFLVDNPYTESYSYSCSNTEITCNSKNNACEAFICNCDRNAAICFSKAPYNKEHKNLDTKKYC
Method: as §3, §4

[6] = target: T5, PLA2 L2W/W3F (Sus scrofa, UniProt P00592, L24W/W25F); test: Bile salt binding by Trp emission, L2W/W3F PLA2; set-up: species or system pig; settings: read-out: KEB
T5 construct: made in house
T5 sequence (P00592 23-146 L24W/W25F): as the sequence (P00592 23-146) above, with L2W, W3F counted along it
Method: as §3, §4

[7] = target: T6, PLA2 K53W/W3F (Sus scrofa, UniProt P00592, R75W/W25F); test: Bile salt binding by Trp emission, K53W/W3F PLA2; set-up: species or system pig; settings: read-out: KEB
T6 construct: made in house
T6 sequence (P00592 23-146 W25F/R75W): as the sequence (P00592 23-146) above, with W3F, R53W counted along it
Method: as §3, §4

[8] = target: T7, PLA2 N117W (Sus scrofa, UniProt P00592, N139W); test: Bile salt binding by Trp emission, N117W PLA2; set-up: species or system pig; settings: read-out: KEB
T7 construct: made in house
T7 sequence (P00592 23-146 N139W): as the sequence (P00592 23-146) above, with N117W counted along it
Method: as §3, §4

[9] = target: T8, PLA2 (Sus scrofa, UniProt P00592); test: Quenching of RET signal from TMA-DPH bound to PLA2 by bile salts; assay type: binding, pig; settings: 1 μM PLA2 and TMA-DPH, pH 8.0
T8 construct: made in house
T8 sequence (P00592 23-146): as the sequence (P00592 23-146) above
Method: as §3

T1 sequence (P04054 23-148): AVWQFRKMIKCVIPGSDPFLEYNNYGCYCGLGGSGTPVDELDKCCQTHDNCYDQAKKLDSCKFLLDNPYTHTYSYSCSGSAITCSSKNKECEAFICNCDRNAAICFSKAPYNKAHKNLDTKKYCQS

For `C[C@H](CCC(=O)NCCS(=O)(=O)O)[C@H]1CC[C@H]2[C@@H]3[C@H](O)C[C@@H]4C[C@H](O)CC[C@]4(C)[C@H]3CC[C@]12C` [TCDOC, taurochenodeoxycholate], the “Relative Rate-lowering (%) Activity, hPLA2” value ([1]; 0.03 mole fraction, DMPC + 0.05 mole fraction cholate) was 90%, the “relative effectiveness in lowering the rate of hydrolysis by human PLA2” value ([1]; DMPC vesicles containing 0.05 mole fraction cholate, FIG. 5B) was “more effective than ezetimibe” and the “Relative Rate-lowering (%) Activity, pPLA2” value [2] was 26%. For the same molecule, the “rate lowering effect with ΔPLA2 mutant” value [3] was “not observed”, the Kd ([4]; Δ62-66, read-out: KEB) was 41 µM and the “KEB for the EB complex of ΔPLA2 relative to PLA2” value ([4]; ΔPLA2 versus PLA2) was “about 7 fold”. For the same molecule, the Kd [5] was 8 µM, the Kd [6] was 18 µM and the Kd [7] was 15 µM. The Kd [8] was 7 µM and the “efficacy to quench RET signal from TMA-DPH bound to PLA2” value [9] was “most effective”.
